The source of these data is US20240408066A1, “Treatment Of Conditions Associated With Stress Granule Formation” (priority 2022, published 2024).

Test [1] deals with T1, recombinant mouse TIA1-ECFP+TIA1-EYFP (Mus musculus, UniProt P52912).
T1 construct: Full-length mouse TIA1 cDNA was generated from standard RT-PCR from total mouse brain RNA; 6xHis (N); made in house; host or cells: E. coli BL21 AI
T1 sequence (P52912 1-386) 1: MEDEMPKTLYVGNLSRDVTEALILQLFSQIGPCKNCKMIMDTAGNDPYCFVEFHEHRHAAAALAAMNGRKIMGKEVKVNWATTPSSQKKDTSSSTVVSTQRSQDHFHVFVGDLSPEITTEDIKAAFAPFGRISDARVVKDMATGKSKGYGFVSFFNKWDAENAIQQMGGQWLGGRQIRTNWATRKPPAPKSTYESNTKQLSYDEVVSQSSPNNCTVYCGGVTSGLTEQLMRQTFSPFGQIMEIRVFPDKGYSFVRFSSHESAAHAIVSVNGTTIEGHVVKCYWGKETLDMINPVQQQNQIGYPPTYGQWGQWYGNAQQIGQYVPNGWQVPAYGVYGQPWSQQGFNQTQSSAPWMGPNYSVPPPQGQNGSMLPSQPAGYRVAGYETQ
T1 sequence (P52912 1-386) 2: T1 sequence (P52912 1-386) 1
Description: In vitro FRET assay of TIA1 multimerization. The format is binding. To be noted: TIA1-ECFP+TIA1-EYFP 10 ug/ml each; test compound 0-40 μM; FIG. 4. The source says:
The assay that takes advantage of a phenomenon involving the transfer of energy between two compatible fluorescent proteins. In particular, the fluorescent proteins CFP and YFP (cyan fluorescent protein and yellow fluorescent protein, respectively) emit fluorescent light of characteristic wavelengths when excited by laser radiation. CFP or YFP was tethered to a TIA1 protein and the hybrid proteins were mixed together. Subsequently, if TIA1 self-interacts (dimerizes), the tethered CFP and YFP proteins are brought into close proximity to one another. When this occurs, laser excitation of CFP leads to a release of energy that is absorbed by YFP, which can be detected in the assay. This assay can be employed in the presence of other agents, such as small molecule compounds, to determine whether their presence has any effect on dimerization of TIA1. This screen was employed to assay compounds in a chemical library in order to identify compounds that effect TIA1 binding and dimerization or multimerization.
One way to establish that test compounds bind recombinant TIA1 is to perform a Förster resonance energy transfer (FRET) experiment. Binding of test compound to monomeric protein is inferred by a change in FRET signal upon ligand-induced multimerization of suitably tagged (c.g.,-ECFP and -EYFP) fusion proteins. In other words, not only must the compound bind to TIA1-ECFP and TIA1-EYFP, it must also induce a change in multimeric state such that energy can be transferred between the ECFP and EYFP tags. […]
Plasmids encoding mouse TIA1-ECFP and TIA1-EYFP were generated by standard PCR-based cloning techniques. […] Samples are read in real-time with a fluorescence microplate reader. To measure donor FRET, samples are excited at 430+30 nm, and […] is measured at 480+20 nm. Compounds that drive multimerization of the fusion proteins cause proximal localization of the ECFP and EYFP moieties, leading to a reduction in ECFP fluorescence with ECFP excitation due to energy transfer to EYFP. […]

Test [2] has as its target T2, recombinant mouse TIA1 with human recombinant tau (0N4R isoform) (Mus musculus, UniProt P52912).
T2 sequence (P52912 1-386): T1 sequence (P52912 1-386) 1
The test can be described thus: TIA1-induced oligomerization of tau protein in vitro (oTau immunoblotting). To be noted: fixed ratio of TIA1:tau; as a function of drug concentration and time (0.5-2 h); FIG. 5 right panels. The format is biochemical. How it is done: Oligomeric tau is the most pathological configuration of the protein.
Purified full-length recombinant mouse TIA1 protein was generated from standard cloning methods followed by standard protocols for bacterial expression and purification. Recombinant TIA1 was incubated with commercially available human recombinant tau (ON4R isoform) obtained from R&D Systems at the indicated molar ratios/concentrations. After indicated incubation times, reactions were spotted onto nitrocellulose membrane followed by immunoblotting with primary antibodies that recognize oligomeric tau (oTau) or TIA1. Fluorescently labeled secondary antibody staining against indicated primary antibodies was followed by quantitative image analysis using a Li-COR Odyssey system. Experiment A evaluates the impact of TIA1:tau molar ratio on tau oligomerization and whether OTX0049 at a single test concentration interferes with TIA1-dependent tau oligomerization (FIG. 5, left panels). The experiment represented in the right panels measure the dose-response of OTX0049 and OTX1017 (Formula I in claims) inhibition of TIA1-dependent tau oligomerization at a fixed ratio of recombinant TIA1:tau (FIG. 5, right panels).
A general note: In western blotting, separated proteins are transferred to a membrane and probed.

Test [3] has as its system rTg4510 transgenic mice. Description: Cellular pathology in rTg4510 mouse model (GFAP and NeuN immunohistochemistry). Conditions: 5 mg/kg i.p. once per week for 7 weeks beginning at 77 d; FIG. 7. The test is classed as in vivo. The protocol: rTg4510 transgenic mice are a well-established model of tauopathy based on expression of a human tau mutant (P301L). […] Given that these cellular pathological events are driven by tau, TIA1 antagonists compounds should limit tau-dependent pathology.
rTg4510 transgenic mice were treated with DMSO vehicle or OTX1017 (Formula I in claims 5 mg/kg i.p.) once per week for 7 weeks beginning at 77 d. Hippocampal slices were then prepared for conventional immunohistochemistry with GFAP (neuroinflammation marker) and NeuN (neuronal marker), followed by quantitation using NIH ImageJ. GFAP signal was quantitated in cortex (ctx) (white arrows). NeuN staining was used to calculate average thickness of the CA1 pyramidal cell layer for each slice.

The subject of test [4] is PS19 transgenic mice. The test can be described thus: Tau oligomerization in vivo in PS19 mice (hippocampal dot blots, oligomeric tau-specific antibody). More on the design: species or system mouse. Conditions: 10 mg/kg i.p. once per week for 6 weeks; FIG. 10. How it is done:
FIG. 10 illustrates the inhibition of tau oligomerization in vivo by OTX1017. Mice were treated with 10 mg/kg OTX1017 i.p., once per week, for 6 weeks, hippocampal extracts were prepared, and dot blots were performed with an oligomeric tau-specific antibody.

Consider `CCOC(=O)c1ccc(-n2sc3ccccc3c2=O)cc1` [Formula III], for which the “multimerization of TIA1 (FRET signal)” value in test [1] was “demonstrate FRET signals indicative of TIA1 multimerization”.
Consider `Cc1ccc(C)c(-n2[se]c3cc(F)ccc3c2=O)c1` [OTX1017], for which, in test [1], the “multimerization of TIA1 (FRET signal)” value is “Induce Multimerization of Recombinant Mouse TIA1”. The “TIA1-dependent tau oligomerization, dose-response” value in test [2] is given as “drug-dependent reduction of TIA1-dependent tau oligomerization”. In addition, in test [3], the “GFAP staining in the cortex (neuroinflammation)” value is given as “ameliorated” and the “thickness of the CA1 pyramidal layer neurons (NeuN staining)” value is on record as “ameliorated by drug treatment”. Also, the “oligomeric tau in the hippocampus” value in test [4] was “significantly reduces the presence of oligomeric tau in the hippocampus”.
With `Cc1ccc(C)c(-n2[se]c3cncnc3c2=O)c1` [OTX1018], the “multimerization of TIA1 (FRET signal)” value in test [1] was “Induce Multimerization of Recombinant Mouse TIA1”.
